# Measured values as given in a compilation of properties of binary mixtures (doi:10.1007/s10953-014-0283-z).
# Test: xn = mol fraction of the nth substance listed
# Settings: 100 kPa
compound,measurement,setting,value
O + CC[NH3+].O=[N+]([O-])[O-],viscosity,"293.15 K, x1 = 1",0.99 mPa·s
same,viscosity,"298.15 K, x1 = 1",0.89 mPa·s
same,viscosity,"303.15 K, x1 = 1",0.81 mPa·s
same,viscosity,"308.15 K, x1 = 1",0.74 mPa·s
same,viscosity,"318.15 K, x1 = 1",0.6 mPa·s
CC[NH3+].O=[N+]([O-])[O-] + O,viscosity,"293.15 K, x2 = 0",40.61 mPa·s
same,viscosity,"293.15 K, x2 = 0.2597",9.91 mPa·s
same,viscosity,"293.15 K, x2 = 0.6776",3.6 mPa·s
same,viscosity,"293.15 K, x2 = 0.7889",2.4 mPa·s
same,viscosity,"293.15 K, x2 = 0.8895",1.64 mPa·s
same,viscosity,"293.15 K, x2 = 0.9499",1.36 mPa·s
same,viscosity,"298.15 K, x2 = 0",34.49 mPa·s
same,viscosity,"298.15 K, x2 = 0.1088",18.13 mPa·s
same,viscosity,"298.15 K, x2 = 0.2597",8.77 mPa·s
same,viscosity,"298.15 K, x2 = 0.3682",6.77 mPa·s
same,viscosity,"298.15 K, x2 = 0.47",5.61 mPa·s
same,viscosity,"298.15 K, x2 = 0.579",4.46 mPa·s
same,viscosity,"298.15 K, x2 = 0.6776",3.22 mPa·s
same,viscosity,"298.15 K, x2 = 0.9499",1.22 mPa·s
same,viscosity,"303.15 K, x2 = 0",29.65 mPa·s
same,viscosity,"303.15 K, x2 = 0.3682",6.06 mPa·s
same,viscosity,"303.15 K, x2 = 0.47",5.04 mPa·s
same,viscosity,"303.15 K, x2 = 0.579",4 mPa·s
same,viscosity,"303.15 K, x2 = 0.6776",2.9 mPa·s
same,viscosity,"303.15 K, x2 = 0.9499",1.1 mPa·s
same,viscosity,"308.15 K, x2 = 0",25.76 mPa·s
same,viscosity,"308.15 K, x2 = 0.2597",6.9 mPa·s
same,viscosity,"308.15 K, x2 = 0.3682",5.41 mPa·s
same,viscosity,"308.15 K, x2 = 0.579",3.61 mPa·s
same,viscosity,"308.15 K, x2 = 0.6776",2.62 mPa·s
same,viscosity,"308.15 K, x2 = 0.7889",1.78 mPa·s
same,viscosity,"308.15 K, x2 = 0.8895",1.22 mPa·s
same,viscosity,"308.15 K, x2 = 0.9499",1 mPa·s
same,viscosity,"313.15 K, x2 = 0.1088",12.2 mPa·s
same,viscosity,"313.15 K, x2 = 0.2597",6.2 mPa·s
same,viscosity,"313.15 K, x2 = 0.3682",4.89 mPa·s
same,viscosity,"313.15 K, x2 = 0.47",4.08 mPa·s
same,viscosity,"313.15 K, x2 = 0.6776",2.38 mPa·s
same,viscosity,"313.15 K, x2 = 0.7889",1.62 mPa·s
same,viscosity,"313.15 K, x2 = 0.8895",1.12 mPa·s
same,viscosity,"313.15 K, x2 = 0.9499",0.92 mPa·s
same,viscosity,"318.15 K, x2 = 0",20.12 mPa·s
same,viscosity,"318.15 K, x2 = 0.1088",10.87 mPa·s
same,viscosity,"318.15 K, x2 = 0.2597",5.59 mPa·s
same,viscosity,"318.15 K, x2 = 0.3682",4.43 mPa·s
same,viscosity,"318.15 K, x2 = 0.579",2.97 mPa·s
same,viscosity,"318.15 K, x2 = 0.6776",2.17 mPa·s
same,viscosity,"318.15 K, x2 = 0.8895",1.03 mPa·s
same,viscosity,"318.15 K, x2 = 0.9499",0.84 mPa·s
